The values that follow come from patent US12692283B2, “Lignan derivative, preparation method therefor and use thereof” (SHANGHAI INSTITUTE OF MATERIA MEDICA, CHINESE ACADEMY OF …, priority 2021, dated 2026).

Structures are written as SMILES.

The subject of one data set is WI-38 senescent cells. Kind of data set: Viability of doxorubicin-induced senescent WI-38 human fibroblasts (MTT). The class given is cell-based. Conditions: WI-38, 72 h, senescent cells induced by 200 nM doxorubicin, co-incubation 3 days. The method, then:
WI-38 cells were cultured in DMEM (high glucose, 4.5 g/L) culture medium (supplemented with 10% FBS, 1% PS).
The experimental testing steps for the effects of compounds on the viability of WI-38 senescent cells were as follows. WI-38 cells were seeded in a 96-well plate at 20,000 cells/well. After overnight, 200 nM doxorubicin was added to each well and incubated for 3 days. Then the medium was replaced with normal culture medium. After 1 day of incubation, the culture medium was replaced with 200 nM doxorubicin and incubated for 3 days to successfully induce senescence of WI-38 cells. Subsequently, different concentrations of compounds were added (40 μM was the highest concentration, and diluted according to ¼, a total of 7 concentrations), and after co-incubation for 3 days, 10 μl of MTT (5 mg/ml) was added to each well and incubated for 4 hours. DMSO (150 μl) was added to each well after aspirating the culture medium.

The subject of a further data set is MLO-Y4 senescent cells. Kind of data set: Viability of doxorubicin-induced senescent MLO-Y4 mouse osteoid cells (MTT). The class given is cell-based. Conditions: MLO-Y4, 72 h, senescent cells induced by 100 nM doxorubicin, co-incubation 3 days, read-out: MOL-Y4 IC50. The method, then: MOL-Y4 cells were cultured in MEM culture medium (supplemented with 10% FBS, 1% PS).
The experimental steps for testing the effects of compounds on the viability of MOL-Y4 senescent cells were as follows. MOL-Y4 cells were seeded in a 96-well plate at 20,000 cells/well. After overnight, 100 nM doxorubicin was added to each well and incubated for 3 days. Then the medium was replaced with normal culture medium. After 1 day of incubation, the culture medium was replaced with 100 nM doxorubicin and incubated for 3 days to successfully induce senescence of MOL-Y4 cells. Subsequently, different concentrations of compounds were added (40 μM was the highest concentration, and diluted according to ¼, a total of 7 concentrations), and after co-incubation for 3 days, 10 μl of MTT (5 mg/ml) was added to each well and incubated for 4 hours. DMSO (150 μl) was added to each well after aspirating the culture medium.

For data set [1], the system named is mitochondrial respiratory chain complex I. The conditions noted are these: ACS Chemical Biology, 2013, 8 (1), 257-267; cited from earlier work.
The subject of a further data set is NB-1 cells. Kind of data set: Viability of human neuroblastoma cells NB-1 (CCK8). The class given is cell-based. Conditions: NB1, 72 h, incubation 3 days. The method, then:
NB-1 cells, suspension cells, were cultured in RPIM1640+10% FBS+1% PS culture medium at 37° C. and 5% CO2. NB-1 was seeded in a 96-well plate at 20,000 cells/well, and different concentrations of compounds were added (40 μM was the highest concentration, diluted according to ¼, a total of 7 concentrations). After incubation for 3 days, 10 μL CCK8 reagent was added to each well. After incubation for 2 hours, OD450 was detected by a microplate reader, then the effect of the compound on cell viability, IC50 value was calculated.

For data set [2] the following is noted: Acta Pharmacologica Sinica, 2018, 39, 787-801, cited from earlier work.
In another data set the test system is OCI-AML3 cells. Kind of data set: Viability of human acute myeloid leukemia cells OCI-AML3 (CCK8). Conditions: OCI-AML-3, 72 h, incubation 3 days. The class given is cell-based. How it is done:
OCI-AML3 cells, suspension cells, were cultured in RPIM1640+10% FBS+1% PS culture medium at 37° C. and 5% CO2. OCI-AML3 was seeded in a 96-well plate at 20,000 cells/well, and different concentrations of compounds were added (40 μM was the highest concentration, diluted according to ¼, a total of 7 concentrations). After incubation for 3 days, 10 μl CCK8 reagent was added to each well. After incubation for 2 hours, OD450 was detected by a microplate reader, then the effect of the compound on cell viability, IC50 value was calculated.

A short description of data set [3]: Oral pharmacokinetics of Compound A4-1a and Arctigenin in ICR mice (plasma, liver, colon). The class given is in vivo, mouse. The conditions noted are these: oral 30 mg/kg, 1-8 h. The method, then:
Arctigenin and Compound A4-1a were administered orally at 30 mg/kg to overnight-fasted ICR mice (male, n=3/time point), respectively. The mice were fed 2 hours after administration. Samples were collected before administration and 1 h, 2 h, 4 h, and 8 h after administration. Blood was collected in centrifuge tubes pretreated with heparin sodium and bis(4-nitrophenyl)phosphate (BNPP). After centrifugation at 11,000 rpm for 5 min at 4° C., plasma was obtained and stored at −80° C. Next, 100 […] of plasma sample, precipitated, vortexed for 1 min, and centrifuged (11,000 rpm) for 5 min. A mixture of 20 […] of methanol/acetonitrile (1:1, v/v) was taken to analyze the concentration of the compound by LC-MS/MS. Liver tissue was stored at −80° C. until analysis. After removal of contents, the colon was quickly washed with cold saline containing BNPP and stored at −80° C. until analysis. Analysis method: After 10 times the weight of MeOH/ACN (1:1, v/v) was added to the tissue samples, the homogenate was obtained by homogenizing for 120 s with a homogenizer at 50 Hz and then centrifuged (11000 rpm) for 5 min, and the supernatant was collected. 20 μL of the supernatant was redissolved in 20 μL of ACN/H2O (1:1, v/v), and the compound concentration was analyzed in LC-MS/MS.

Data set [4] concerns the target Mitochondrial Respiratory Complex I (Complex I) (Mus musculus, UniProt P03888+Q91WD5+Q9DC70). Kind of data set: Inhibitory activity on mitochondrial respiratory Complex I (NADH activity, mitochondria from mouse heart tissue). The class given is biochemical. The conditions noted are these: NADH 50 μM, read at 340 nm, 30 μg mouse heart mitochondrial protein. How it is done: Mitochondria were extracted from mouse heart tissue. […] of solution A (0.22M mannitol, 0.07M sucrose, 0.02M HEPES, 2 mM Tris-HCl, 1 mM EDTA, pH 7.2, 0.4% BSA) was added to the heart tissue. The tissue was cut up and then washed three times with solution A to remove blood and connective tissue, then homogenized using a glass homogenizer about 30 times. The suspension was centrifuged at 3000 g for 1.5 min, and the supernatant was retained. The precipitate was resuspended in solution A with protease inhibitor and re-centrifuged to collect the supernatant. The supernatants from two collections were mixed for the next step. The supernatant was centrifuged at 17500 g for 2.5 min and the supernatant was discarded. The precipitate was resuspended in solution A with protease inhibitor, centrifuged at 17500 g for 4.5 min, resuspended in solution B (2.5 mM potassium phosphate, 5 mM MgCl2 pH 7.2) and repeatedly frozen and thawed to obtain a solution of the mitochondrial complex for subsequent assay. To measure the NADH activity of Complex I, 2.5 mL of reaction solution containing 50 mM HEPES, 5 mM MgCl2 pH 7.5 and 30 μg of mitochondrial protein from the above process was prepared. The compound to be detected was added and equilibrated for 5 minutes, and then was dispensed into each well. Finally, NADH (50 μM) was quickly added, and data at […] were read every 30 sec for a total of 15 minutes. Calculation: the NADH reaction rates for different compounds were calculated, then the inhibition rate (compound reaction rate/control reaction rate×100) was calculated, and the IC50 value of the compound was finally calculated.

For orientation: IC50 means the concentration that inhibits the measured activity by half.

Chain of Mitochondrial Respiratory Complex I (Complex I) (P03888 whole entry): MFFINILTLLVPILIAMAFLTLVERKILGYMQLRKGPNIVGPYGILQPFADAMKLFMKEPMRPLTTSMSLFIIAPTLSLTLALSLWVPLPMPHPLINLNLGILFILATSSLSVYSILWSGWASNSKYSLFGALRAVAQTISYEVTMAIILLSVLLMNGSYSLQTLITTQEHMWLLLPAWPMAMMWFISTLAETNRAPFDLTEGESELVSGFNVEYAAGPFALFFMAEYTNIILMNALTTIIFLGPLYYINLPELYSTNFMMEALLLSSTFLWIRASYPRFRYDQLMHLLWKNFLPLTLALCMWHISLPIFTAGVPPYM
Chain of Mitochondrial Respiratory Complex I (Complex I) (Q91WD5 34-463): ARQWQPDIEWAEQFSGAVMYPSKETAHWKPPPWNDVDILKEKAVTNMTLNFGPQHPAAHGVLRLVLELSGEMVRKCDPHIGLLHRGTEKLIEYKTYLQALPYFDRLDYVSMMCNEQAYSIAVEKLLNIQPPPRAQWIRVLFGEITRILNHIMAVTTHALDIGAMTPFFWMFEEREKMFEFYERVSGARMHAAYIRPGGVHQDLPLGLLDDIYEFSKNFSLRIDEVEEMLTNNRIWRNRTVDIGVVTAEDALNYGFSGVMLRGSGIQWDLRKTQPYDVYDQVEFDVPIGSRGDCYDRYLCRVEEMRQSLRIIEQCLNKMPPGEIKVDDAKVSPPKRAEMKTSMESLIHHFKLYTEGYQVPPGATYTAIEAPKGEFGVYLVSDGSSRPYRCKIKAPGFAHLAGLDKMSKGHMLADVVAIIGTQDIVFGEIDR
Chain of Mitochondrial Respiratory Complex I (Complex I) (Q9DC70 36-224): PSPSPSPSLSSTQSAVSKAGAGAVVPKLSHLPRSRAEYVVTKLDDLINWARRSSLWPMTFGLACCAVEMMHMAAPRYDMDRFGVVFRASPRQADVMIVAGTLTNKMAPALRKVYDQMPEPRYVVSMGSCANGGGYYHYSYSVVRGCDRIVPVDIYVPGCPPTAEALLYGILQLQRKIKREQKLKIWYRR

`CC1(C)CCC(c2ccc(Cl)cc2)=C(CN2CCN(c3ccc(C(=O)NS(=O)(=O)c4ccc(N[C@H](CCN5CCOCC5)CSc5ccccc5)c(S(=O)(=O)C(F)(F)F)c4)cc3)CC2)C1` [ABT263, reference compound]: the IC50 with WI-38 senescent cells turned out to be 5600 nM; with MLO-Y4 senescent cells, 235 nM.
As for `COc1cc(C[C@H]2C(=O)OC[C@@H]2Cc2ccc(OC)c(OC)c2)ccc1O` [Arctigenin], the “inhibition of mitochondrial respiratory chain complex I” value in data set [1] was “moderately potent and selective inhibitor”. For the same compound, the IC50 is 2380 nM in the data set on NB-1 cells and 589 nM with OCI-AML3 cells. In addition, the “metabolism after oral administration” value in data set [2] is on record as “easily metabolized after oral administration”. Moreover, the bioavailability entry in data set [2] (oral) is “low bioavailability”. In data set [2] (oral), the pharmacokinetic properties result was “poor pharmacokinetic properties”.
As for `COc1cc(C[C@@]2(C)C(=O)OC[C@@H]2Cc2ccc(OC)c(OC)c2)ccc1O` [Compound A4-1a, (3R,4R)-4-(3,4-dimethoxybenzyl)-3-(4-hydroxy-3-methoxybenzyl)-3-methyldihydrofuran-2 (3H)-one], the half-maximal inhibitory concentration (IC50) with NB-1 cells is 424 nM; with OCI-AML3 cells, 81 nM; in data set [4], 507 nM; with WI-38 senescent cells it was 38 nM; in the data set with MLO-Y4 senescent cells, 40 nM. In addition, the “drug concentrations in plasma and tissues compared with Arctigenin” value in data set [3] was “significantly higher drug concentrations in plasma and tissues”.
For the compound `COc1cc(C[C@]2(F)C(=O)OC[C@@H]2Cc2ccc(OC)c(OC)c2)ccc1O` [Compound A4-1b], the IC50 in data set [4] is 1270 nM.
`COc1cc(C[C@@]2(F)C(=O)OC[C@@H]2Cc2ccc(OC)c(OC)c2)ccc1O` [Compound A4-1c] showed an IC50 in data set [4] of 185 nM.
In the case of `COc1cc(C[C@@]2(Cl)C(=O)OC[C@@H]2Cc2ccc(OC)c(OC)c2)ccc1O` [Compound A4-1d], the 50% inhibitory concentration (IC50) in the data set on NB-1 cells was found to be 546 nM; in the data set with OCI-AML3 cells, 169 nM.
Regarding `COc1cc(C[C@@]2(CCl)C(=O)OC[C@@H]2Cc2ccc(OC)c(OC)c2)ccc1O` [Compound A4-1e], the IC50 in data set [4] was found to be 473 nM; in the data set with WI-38 senescent cells, 1000 nM; in the data set on MLO-Y4 senescent cells, 150 nM.
Take `COc1cc(C[C@@]2(CO)C(=O)OC[C@@H]2Cc2ccc(OC)c(OC)c2)ccc1O` [Compound A4-1i]: the 50% inhibitory concentration (IC50) is 433 nM with NB-1 cells and 91 nM in the data set on OCI-AML3 cells.
The compound `COc1ccc(C[C@H]2COC(=O)[C@@H]2Cc2ccc(O)c(OCCc3ccccc3)c2)cc1OC` [Compound B9-1a, (3R,4R)-4-(3,4-dimethoxybenzyl)-3-(4-hydroxy-3-phenylethoxybenzyl)dihydrofuran-2 (3H)-one] gave an IC50 in data set [4] of 54 nM.
Take `[2H]C([2H])([2H])Oc1cc(C[C@H]2C(=O)OC[C@@H]2Cc2ccc(OC)c(OC)c2)ccc1O` [Compound B9-1d]: the half-maximal inhibitory concentration (IC50) came out at 602 nM in the data set with OCI-AML3 cells and 696 nM in data set [4].
Regarding `COc1ccc(C[C@H]2COC(=O)[C@@H]2Cc2ccc(O)c(OCC(F)(F)F)c2)cc1OC` [Compound B9-1e], the IC50 with NB-1 cells was 175 nM; in the data set with OCI-AML3 cells, 274 nM.
Compound `COc1ccc(C[C@H]2COC(=O)[C@@H]2Cc2ccc(O)c(OCc3ccccc3)c2)cc1OC` [Compound B9-1p] registered an IC50 in data set [4] of 465 nM.
Consider `COc1ccc(C[C@H]2COC(=O)[C@@H]2Cc2ccc(O)c(OCCc3ccc(C(F)(F)F)cc3)c2)cc1OC` [Compound B9-1q], for which the concentration for half-maximal inhibition (IC50) in data set [4] is 64 nM.
Same read-out and setting: under `COc1ccc(C[C@H]2COC(=O)[C@@H]2Cc2ccc(O)c(OCCn3cccc3)c2)cc1OC` [Compound B9-1r] stands 316 nM; under `COc1ccc(C[C@H]2COC(=O)[C@@H]2Cc2ccc(O)c(OCC(O)c3ccccc3)c2)cc1OC` (stereo partly shown) [Compound B9-1u], 564 nM; under `COc1ccc(C[C@H]2COC(=O)[C@@H]2Cc2ccc(O)c(OCCCc3ccccc3)c2)cc1OC` [Compound B9-1v], 34 nM.
For the compound `COc1ccc(C[C@H]2COC(=O)[C@@H]2Cc2ccc(O)c(OCC(O)c3ccc(C(F)(F)F)cc3)c2)cc1OC` (stereo partly shown) [Compound B9-1x], inhibition in data set [4] was half-maximal at 650 nM (IC50).
The compound `COc1ccc(C[C@H]2COC(=O)[C@]2(C)Cc2ccc(O)c(OCCc3ccccc3)c2)cc1OC` [Compound B11-1a, (3R,4R)-4-(3,4-dimethoxybenzyl)-3-(4-hydroxy-3-phenylethoxybenzyl)-3-methyldihydrofuran-2 (3H)-one] came in with an IC50 in data set [4] of 646 nM.
Regarding `COc1ccc(C[C@H]2COC(=O)[C@]2(C)Cc2ccc(O)c(OCC(F)(F)F)c2)cc1OC` [Compound B11-1b], the IC50 in the data set on NB-1 cells stood at 626 nM; in the data set with OCI-AML3 cells it was 47 nM; in data set [4], 668 nM.
Take `COc1ccc(C[C@H]2COC(=O)[C@]2(C)Cc2ccc(O)c(OCC(O)c3ccc(C(F)(F)F)cc3)c2)cc1OC` (stereo partly shown) [Compound B11-1c]: the IC50 in the data set with NB-1 cells worked out at 446 nM; in the data set on OCI-AML3 cells, 289 nM.
In data set [4], `COc1cc(C[C@H]2COC(=O)[C@]2(C)Cc2ccc(O)c(OC)c2)ccc1O` [Compound B11-1e] yielded an IC50 of 1370 nM.
In data set [4], `COc1cc(C[C@@]2(C)C(=O)OC[C@@H]2Cc2ccc3c(c2)OCO3)ccc1O` [Compound B11-1f] yielded a concentration for half-maximal inhibition (IC50) of 420 nM.
Regarding `COc1ccc(C[C@H]2COC(=O)[C@]2(C)Cc2ccc(OC)c(OC)c2)cc1OC` [Compound B11-1h], in data set [4], the IC50 was 13200 nM.
